Values quoted from earlier work as cited in patent publication US8546585B2, “Process for preparing eprosartan mesylate” (Zhejiang Huahai Pharmaceutical Co., Ltd., priority 2008, dated 2013).
Where a name gives a salt, the structure may show the parent alone.

Legend:
[1] = mild, moderate and severe hypertensive patients
[2] = not given; remark: listed apart in the source
[3] = patients with liver and kidney dysfunction, or fullness after administration

CCCCc1ncc(/C=C(\Cc2cccs2)C(=O)O)n1Cc1ccc(C(=O)O)cc1 [Eprosartan mesylate]
protein binding rate: 98% | lowering of systolic and diastolic pressures [1]: potent to lower systolic and diastolic pressures | safety and tolerability [1]: safe and tolerable | absorption ([2]; administrated orally): rapidly absorbed | AUC (Area Under Curve) elevated by [2, 3]: about 50% | blood peak concentration elevated by [2, 3]: about 50%
